Where a SMILES comes first, the peptide text is derived from it. [ ]: non-standard residue; d: D form. pGlu = O=C1CC[C@@H](C(=O)O)N1; Thz = O=C(O)[C@@H]1CSCN1
Experiment: GHS categories as the set defines them, by LD50: 1 up to 5, 2 up to 50, 3 up to 300, 4 up to 2000, 5 above 2000 mg/kg
Conditions: rat; in vivo; po
Text: […]The data set underlying the modeling effort for this project was initially compiled by NICEATM and U.S. EPA’s CCTE. Briefly, LD50 data were collected from rat acute oral systemic toxicity tests, including limit tests, ranges/confidence intervals, and discrete LD50 values. The full data set included 21,200 LD50 entries for 15,688 substances. […] Data were reviewed to ensure that LD50 values with obvious errors in the extracted data such as unit conversion errors (e.g., comma and decimal separator misplacements) were either fixed or removed. After this review, 16,209 LD50 values remained. Many of the chemicals represented had multiple LD50 entries, requiring that a single representative value per Chemical Abstracts Service Registry Number (CASRN) identifier be defined to facilitate modeling efforts. Based on ATWG feedback and to define the representative LD50 as a protective value while accounting for the distribution across multiple LD50s, the median of the lowest quartile was computed using only discrete LD50 values (omitting limit test data and range and confidence interval data). A detailed summary of the data compilation is available online on the NICEATM webpage dedicated to the collaborative modeling project (NTP 2020).
[…][…] For categorical designations, limit test and range/confidence interval LD50 data were integrated wherever possible. As such, the number of chemicals with end point values/calls varies across the modeling end points (Table 3) based on whether chemicals had representative LD50 values and/or other data. If a chemical had both, the representative value was used to determine categorical calls rather than limit test data. Some data were useable only for certain end points and categories depending on the thresholds. For example, ranges that spanned multiple hazard categories were considered only for the binary (very toxic/nontoxic) end points and omitted from rendering a determination for hazard category assignment.
[…]The final data set comprising 11,992 chemicals was split into training and evaluation sets […], respectively. This process was performed semirandomly by ordering chemicals based on the five end points (categorical and continuous LD50 values) and partitioning every fourth record into the evaluation set accordingly. This approach was taken to ensure an equivalent distribution of the LD50 values and the different hazard categories between the training and the evaluation sets without supervised sampling of the chemicals based on structures (Figure 1A). The sources of the chemical structures were also kept equivalent between the two sets, with chemical structures obtained from DSSTox, being the highest quality, representing over 75% of each set (Figure 1B).

SMILES	GHS category
C[C@]12CC[C@@H]3c4ccc(O)cc4CC[C@H]3[C@@H]1C[C@@H](O)[C@@H]2O	5
Nc1ccc(CCc2ccc(N)cc2)cc1	5
OC1(c2ccccc2)c2c(Cl)cccc2C2=NCCN21 (centres undefined)	4
O=S(O)CO	5
Cc1c(C)c2c(c(C)c1O)CCC(C)(CCCC(C)CCCC(C)CCCC(C)C)O2 (racemic)	5
CCCNC(=O)c1cnc2ccc(C)cn2c1=O	3
CC(C#N)c1cccc(C(=O)c2ccccc2)c1 (centres undefined)	4
O=c1[nH]c(CCl)nc2sc3c(c12)CCCC3	5
CCCCCCC#CC(OC)OC	5
CCOC(=O)C1=C(C)C=CCC1(C)C	5
COCC1COC(Cn2cncn2)(c2cc3cc(Cl)cc(Cl)c3o2)O1 (centres undefined)	4
O=C(O)CCCCCCCCCCNS(=O)(=O)c1ccc(Cl)cc1C(=O)c1ccccc1	4
O=C(CCCCC(=O)N(CCO)CCO)N(CCO)CCO	5
CCn1cc(C(=O)O)c(=O)c2cnc(N3CCCC3)nc21	5
Clc1ccccc1-c1nc(-c2ccncc2)no1	5
CCOC(=O)[C@H](CCc1ccccc1)N[C@@H](C)C(=O)N1[C@H](C(=O)O)C[C@H]2CCCC[C@@H]21	5
Cn1c(=O)oc2cc(C(=O)c3ccccc3)ccc21	5
CCCNC(=O)c1cnc2cc(C)ccn2c1=O	3
CCCC(C)C=O (centres undefined)	5
O=c1[nH]sc2cc(Cl)ccc12	5
CCC(=O)C(C)CO (centres undefined)	5
CCCCC1=NC2(CCCC2)C(=O)N1Cc1ccc(-c2ccccc2C#N)cc1	5
CCCCCCCCCC(C)C(OC)OC (centres undefined)	5
CO[C@H]1C=CO[C@@]2(C)Oc3c(C)c(O)c4c(O)c(c(/C=N/N5CCN(C6CCCC6)CC5)c(O)c4c3C2=O)NC(=O)C(C)=CC=C[C@H](C)[C@H](O)[C@@H](C)[C@@H](O)[C@@H](C)[C@H](OC(C)=O)[C@@H]1C	5
CCC=CCCOC(=O)C(C)C	5

SMILES	GHS category
CC(C)C1CCCCC1	5
CCCCCCCC1CCCO1 (centres undefined)	5
CCSC(=O)/C=C(C)/C=C/CC(C)CCCC(C)(C)OC (centres undefined)	5
COC[C@@H]1CO[C@@](Cn2ccnc2)(c2cc3cc(Cl)cc(Cl)c3o2)O1	4
CCN(Cc1cccc(S(=O)(=O)O)c1)c1ccc(C(=C2C=CC(=[N+](CC)Cc3cccc(S(=O)(=O)[O-])c3)C=C2)c2ccc(S(=O)(=O)O)cc2)cc1	5
CC(C)=CCN(CC=C(C)C)CCC(C#N)c1cccc2ccccc12 (centres undefined)	4
CC(C)(C)c1ccc(C=O)cc1	4
CO[C@@]1(NC(=O)C2SC(=C(C(N)=O)C(=O)O)S2)C(=O)N2C(C(=O)O)=C(CSc3nnnn3C)CS[C@@H]21 (some centres undefined)	5
CCOC(=O)NC(=S)Nc1ccccc1NC(=S)NC(=O)OCC	5
CN1CC(c2ccn(-c3ccccc3)n2)CC2c3cccc4[nH]cc(c34)CC21 (centres undefined)	4
CCOCCOC(=O)C(=O)Nc1nc(-c2ccccc2)cs1	5
CS(=O)(=O)c1ccc(F)c(C(=O)O)c1	5
CC1OC(Cn2cncn2)(c2cc3ccccc3o2)OC1C (centres undefined)	4
CC(C)=CCN(CC=C(C)C)CCC(C#N)(Cc1cccc2ccccc12)C(C)C (centres undefined)	4
O=C(O)C1(O)c2ccccc2-c2ccc(Cl)cc21 (centres undefined)	5
CCCCCCCCOC=O	5
COC(=O)CCc1cc(-n2nc3ccccc3n2)c(O)c(C(C)(C)C)c1	5
CCOc1c(OC)cccc1-c1nc(=O)c2cc(C(=O)O)ccc2[nH]1	4
CC(=O)O[C@@]12CCC[C@@](C)(CC[C@@H]3[C@@H]1CC3(C)C)C2	5
CC(C)(Sc1cc(C(C)(C)C)c(O)c(C(C)(C)C)c1)Sc1cc(C(C)(C)C)c(O)c(C(C)(C)C)c1	5
CNc1nc(Nc2ccc(C=Cc3ccc(Nc4nc(NC)nc(N(CCO)CCO)n4)cc3S(=O)(=O)O)c(S(=O)(=O)O)c2)nc(N(CCO)CCO)n1	5
CNC(=O)C(=NNc1ccc(OC)cc1)C(C)=O	5
CN[C@@H]1[C@@H](O)[C@@H](O[C@@H]2[C@@H](O)[C@H](O[C@H]3O[C@H](CN)[C@@H](O)[C@H](O)[C@H]3O)[C@@H](N)C[C@H]2NC(=O)C(O)CN)OC[C@]1(C)O (some centres undefined)	5
CC(C)C(O)C(C)(C)CO (centres undefined)	5
CCCC(CCC)C(=O)Oc1cc(C)ccc1C(C)C	5

SMILES	GHS category
NC(=O)OCC(COC(N)=O)c1ccccc1	5
CCC(C(=O)Oc1ccccc1OC)c1ccc(-c2ccccc2)cc1 (centres undefined)	5
O=C(NC(=O)c1ccccc1Cl)Nc1ccc(OC(F)(F)F)cc1	5
C=C[Si](C)(N(CC)C(C)=O)N(CC)C(C)=O	4
OC1(c2cccs2)c2ccccc2C2=NCCN21 (centres undefined)	4
CN(C)CCCNc1nc2cc(Cl)ccc2o1	4
COc1ccccc1NC(=O)c1cc2ccccc2cc1O	5
Cc1cc(C)c(O)c(-c2cc(C)cc(C)c2O)c1	5
Cc1cc(CCC(=O)OCCOCCOCCOC(=O)CCc2cc(C)c(O)c(C(C)(C)C)c2)cc(C(C)(C)C)c1O	5
CC(=O)O[C@]1(C(C)=O)CC[C@H]2[C@@H]3C[C@H](C)C4=CC(=O)CC[C@]4(C)[C@H]3CC[C@@]21C	5
N#CCCn1ccnc1	4
O=C1CN2CCOC2(c2ccccc2F)c2cc(Cl)ccc2N1CCO (centres undefined)	5
CCCCCCCCOCCCCCCCC	5
CSCCC(NC(=O)C(N)Cc1c[nH]c2ccccc12)C(=O)NC(CC(=O)O)C(=O)NC(Cc1ccccc1)C(N)=O (centres undefined)	5
CO/C=C(/C(=O)OC)c1ccccc1COc1cccc(C(F)(F)F)n1	5
c1ccc(Nc2ccc(NC3CCCCC3)cc2)cc1	5
O=C1CC[C@@H](C(=O)N2CSC[C@H]2C(=O)O)N1 ([pGlu]-[Thz]-OH)	5
CC1(C)CCC(=Cc2ccc(Cl)cc2)C1(O)Cn1cncn1 (centres undefined)	5
O=C1NC(=O)C2CC=CCC12 (centres undefined)	5
CCCCCOC(=O)CCCCC	5
CCn1cc(C(=O)O)c(=O)c2cnc(N3CCNCC3)nc21	5
COC(=O)C(C)(C)c1ccc(Br)cc1	5
Cc1cc(C)c(C(=O)P(=O)(c2ccccc2)c2ccccc2)c(C)c1	5
CCCCCCCCCCCCCCCC	5
Cc1cc(C(=O)NCCc2ccc(S(=O)(=O)NC(=O)NC3CCCCC3)cc2)no1	5

SMILES	GHS category
NCC(=O)N[C@@H](CCC(N)=O)C(=O)O (H-Gly-Gln-OH)	5
CCCCCCCCCCCCCO[PH](=O)OCCCCCCCCCCCCC	5
O=C(O)c1ccc(/N=N/c2ccc(O)c(C(=O)O)c2)cc1	5
CCCCCOC(=O)CCCC	5
CCOC(=O)C(=O)Nc1nc(-c2ccc(OC)cc2)cs1	5
C[C@@H]1CN2CC(=O)Nc3ccc(Cl)cc3[C@]2(c2ccccc2)O1	5
CC(C)CCCCCCOC(=O)C1CCCCC1C(=O)OCCCCCCC(C)C (centres undefined)	5
CC[N+](CC)(CC)CCOc1cccc(OCC[N+](CC)(CC)CC)c1OCC[N+](CC)(CC)CC	4
Nc1nc(=O)c(Br)c(-c2ccccc2)[nH]1	5
O=[N+]([O-])c1cccc(C=NOCc2cccc([N+](=O)[O-])c2)c1	4
CCCCOC(=O)c1ccc(-n2nc(OC)c3ccccc32)cc1	5
C=C1CC[C@H]2O[C@]2(C)CC[C@@H]2[C@@H]1CC2(C)C	5
OCCCOc1nn(-c2cccc(C(F)(F)F)c2)c2ncccc12	4
CCCc1nc2ccnn2c(Cl)c1Cc1ccc(-c2ccccc2-c2nn[nH]n2)cc1	4
CCNC(=O)NCc1cccc(Cl)c1	5
C[C@H]1[C@H](NC(=O)C(=NOC(C)(C)C(=O)O)c2csc(N)n2)C(=O)N1S(=O)(=O)O	5
NC(=O)Oc1ccccc1C(=O)Oc1ccccc1[N+](=O)[O-]	5
COC(=O)c1nccnc1N	5
CC(C)CCCCCCCCCCCCCCCOC(=O)CCCCCCCCCCCCCCC(C)C	5
CC(C)OP(O)(=S)OC(C)C	4
NC(=S)NS(=O)(=O)c1ccc(N)cc1	5
CCCc1c(Cc2ccc(-c3ccccc3-c3nn[nH]n3)cc2)c(=O)nc2nc[nH]n12	4
OC(c1ccccc1)c1ccc(-c2ccccc2)cc1 (centres undefined)	5
CC(C)(C)c1ccc(O)c(C(C)(C)C)c1	5

Reference: the CATMoS acute toxicity set (Mansouri et al. 2021)
